Tests used:
[1] = test system: Sinapis avensis; experiment: Visual effect rating (0-9) after Roundup Bio; type: in vivo
Method: (§1) Four, eight, sixteen and thirty two days after spraying, visual effects on plants were noted before harvest, using the rating chart described in Hamil. et al. (1977) and Boutin et al. (1993); a rating of zero indicates full growth and vigour, and a rating of nine indicates no growth/mortality.
(§2) The study was performed in greenhouse between August and December 1998 for all species. Degree days (=(Present temperature in ° C.-5° C.)×amount of days) were used as time scale. The plants were 226-378 degree days (30 days) old before exposure. The plants were exposed to 0, 1. 10 and 100% of the recommended field dose of Roundup Bio. Before the harvest, the plants were evaluated for visual effects using the rating chart described in Table 1 (Hamit et al., 1977). A rating of zero indicates full growth and vigour (compared with control plants) and a rating of nine, no growth/mortality. The plants were all harvested 180 degree days (14 days) after exposure. The plants were lyophilizied and k pt dry and in dark before phytochemical analysis.
(§3) Table 2: Sensitivity of plants exposed to glyphosate (Roundup Bio), based on presence of phytochemical changes in all the TLC-Systems at lowest dose of concentration (LC) of the herbicide in percent of field dose. The corresponding visual effect (VE) Is presented (see table 1).

[2] = test system: Mentha spicata; experiment: Visual effect rating (0-9) after Roundup Bio; type: in vivo
Method: as §1, §2, §3

[3] = test system: Rudbeckia hirta; experiment: Visual effect rating (0-9) after Roundup Bio; type: in vivo
Method: as §1, §2, §3

[4] = test system: Papaver rhoeas; experiment: Visual effect rating (0-9) after Roundup Bio; type: in vivo
Method: as §1, §2, §3

[5] = test system: Nepeta cataria; experiment: Visual effect rating (0-9) after Roundup Bio; type: in vivo
Method: as §1, §2, §3

[6] = test system: Bellis perennis; experiment: Visual effect rating (0-9) after Roundup Bio; type: in vivo
Method: as §1, §2, §3

[7] = test system: tobacco cell cultures; conditions: two cell lines, in the presence of glyphosate; cited from earlier work

With O=C(O)CNCP(=O)(O)O [Glyphosate] the “VE: corresponding visual effect” value [1] was 7, the “VE: corresponding visual effect” value [2] was 6 and the “VE: corresponding visual effect” value [3] was 1. For the same compound, the “VE: corresponding visual effect” value [4] was 4, the “VE: corresponding visual effect” value [5] was 7 and the “VE: corresponding visual effect” value [6] was 7. The “increase of levels of free shikimic acid” value [7] was “more than 300 fold”.
